Data: patent publication US20260274876A1, “3-PYRROLIDINE-INDOLE DIMERS AS SEROTONERGIC AGENTS USEFUL FOR THE TREATMENT OF DISORDERS RELATED THERETO” (MINDSET PHARMA INC., priority 2022, published 2026)
pIC50: −log10 of the molar value.

Key:
[1] = Liver microsomes stability, human; details: human liver microsomes, without cofactors, 60 min
Description: (§1) 40 μL of 10 mM NADPH solution was added to each well. The final concentration of NADPH was 1 mM. The negative control samples were prepared by replacing NADPH with 40 μL of ultra-pure H2O. Samples were prepared in duplicate. Negative controls were prepared in singlet.
(§2) This study was performed in duplicate.
(§3) LC/MS analysis was performed for all samples from this study using a Shimadzu liquid chromatograph separation system equipped with degasser DGU-20A5R; solvent delivery unit LC-30AD; system controller SIL-30AC; column oven CTO-30A; CTC Analytics HTC PAL System. Mass spectrometric analysis was performed using a Triple Quad™ 5500 instrument.
(§4) All calculations were carried out using Microsoft Excel.
(§5) All calculations were carried out using Microsoft Excel. Peak areas were determined from extracted ion chromatograms.

[2] = Liver microsomes stability, rat; details: rat liver microsomes, 60 min
Description: as §1, §2, §3, §4, §5

[3] = Liver microsomes stability, mouse; details: mouse liver microsomes, 60 min
Description: as §1, §2, §3, §4, §5

[4] = Intestinal mucosal permeation using Caco-2 cell monolayers; details: human; for Papp A→B at 2 h, 5 µM / Papp B→A at 2 h, 5 µM / efflux ratio at 2 h, 5 μM: Caco-2, pH 7.4
Description: Plate was returned to incubator.
Vortexed for 5 minutes. […] Incubated at 37° C. for 30 minutes.

[5] = Plasma stability, rat; type: in vitro ADME
Description: (§6) • a. […] The final concentration of organic solvents was 0.5%. The assay was performed in duplicated. • b.
as §4

[6] = Plasma stability, human; type: in vitro ADME
Description: as §6, §4

[7] = Plasma stability, mouse; type: in vitro ADME
Description: as §6, §4

[8] = target: human 5-HT2A receptor (Homo sapiens, UniProt P28223); experiment: Human 5-HT2A radioligand binding assay ([3H]-ketanserin)
Description: The objective of this study was to evaluate the binding properties of exemplary compounds of Formula I on 5-hydroxytryptamine receptor 2A (5-HT2A).
• 1. The assay buffer was prepared following the table below.
• 2. 8 doses of reference and test compounds starting from 10 mM stock solution as required was prepared by 5-fold serial dilutions with 100% (v/v) DMSO. • 3. UniFilter-96 GF/B plate was pretreated: • i. 50 μl/well of 0.5% (v/v) PEI was added to […]. The plates were sealed and incubated at […] for 3 hrs. • ii. After incubation, the plates were washed 3 times with ice-cold wash buffer (50 mM Tris, pH7.4). • 4. The assay plate was prepared: • i. Cell membrane was diluted with assay buffer and 330 μl/well was added to 96 round deep well plates to reach a concentration of 20 μg/well. • ii. 8 concentrations of reference or test compounds were prepared and 110 μl/well was added to 96 round deep well plates. • iii. [3H]-ketanserin was diluted with assay buffer to 5 nM (5×final concentration) and 110 μl/well was added to 96 round deep well plates. • 5. The plate was centrifuged at 1000 rpm for 30 secs and then agitated at 600 rpm, R.T. for 5 min. • 6. The plates were sealed and the plate incubated at 279C for 90 min. • 7. The incubation was stopped by vacuum filtration onto GF/B filter plates followed by 4 times washing with ice-cold wash buffer (50 mM Tris, pH7.4). • 8. The plates were dried at 379C for 45 min. • 8. The filter plates were sealed and 40 μl/well of scintillation cocktail was added. • 10. The plate was read by using a Microbeta^2 microplate counter.
• 1. For reference and test compounds, the results were expressed as % Inhibition, using the normalization equation: N=100−100×(U−C2)/(C1−C2), where U is the unknown value, C1 is the average of high controls, and C2 is the average of low controls. • 2. The IC50 was determined by fitting percentage of inhibition as a function of compound concentrations with Hill equation using XLfit.

[9] = Caco-2, pH 7.4, Percentage recovery (%) A→B, Caco-2, A→B
[10] = Caco-2, pH 7.4, Percentage recovery (%) B→A, Caco-2, B→A
[11] = 37° C., N.A. = no peak detected at 30 min

Sequence of human 5-HT2A receptor (P28223 whole entry): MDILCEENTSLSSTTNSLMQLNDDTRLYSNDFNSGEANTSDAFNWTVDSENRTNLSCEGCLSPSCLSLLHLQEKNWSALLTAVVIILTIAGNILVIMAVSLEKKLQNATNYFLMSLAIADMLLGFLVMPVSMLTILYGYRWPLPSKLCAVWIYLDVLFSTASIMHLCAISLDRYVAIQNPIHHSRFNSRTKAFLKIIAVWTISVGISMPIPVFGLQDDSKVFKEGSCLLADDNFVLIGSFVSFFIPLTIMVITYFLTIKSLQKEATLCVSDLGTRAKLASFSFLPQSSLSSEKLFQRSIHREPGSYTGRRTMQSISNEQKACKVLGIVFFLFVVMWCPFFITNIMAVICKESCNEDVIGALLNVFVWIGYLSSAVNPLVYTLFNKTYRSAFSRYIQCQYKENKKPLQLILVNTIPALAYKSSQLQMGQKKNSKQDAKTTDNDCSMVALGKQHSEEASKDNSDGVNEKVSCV

## O=C(O)Cc1ccccc1Nc1c(Cl)cccc1Cl [Diclofenac, reference compound]
[1]
  Remaining Percentage (%) after 60 min, Human, Without cofactors: 95.90%
[2]; with cofactors
  Remaining Percentage (%) after 60 min, Rat, With cofactors: 7.11%
[2]; without cofactors
  Remaining Percentage (%) after 60 min, Rat, Without cofactors: 97.86%
[3]; with cofactors
  Remaining Percentage (%) after 60 min, Mouse, With cofactors: 35.94%
[3]; without cofactors
  Remaining Percentage (%) after 60 min, Mouse, Without cofactors: 97.86%

## C[C@H]1O[C@@H](O[C@H]2[C@@H](O)C[C@H](O[C@H]3[C@@H](O)C[C@H](O[C@H]4CC[C@@]5(C)[C@H](CC[C@@H]6[C@@H]5C[C@@H](O)[C@]5(C)[C@@H](C7=CC(=O)OC7)CC[C@]65O)C4)O[C@@H]3C)O[C@@H]2C)C[C@H](O)[C@@H]1O [Digoxin]
[4]
  Papp A→B at 2 h, 5 µM: 0.53 ×10⁻⁶ cm/s
  Papp B→A at 2 h, 5 µM: 18.9 ×10⁻⁶ cm/s
  efflux ratio at 2 h, 5 μM: 35.4
[4]; [9]
  recovery at 2 h, 5 μM: 86.6%
[4]; [10]
  recovery at 2 h, 5 μM: 104%

## CC[C@H](C)C(=O)O[C@H]1C[C@@H](C)C=C2C=C[C@H](C)[C@H](CC[C@@H]3C[C@@H](O)CC(=O)O3)[C@H]21 [Lovastatin, reference compound]
[5]; 0 min
  Remaining Percentage (%) 0 min: 100.00%
[5]; 30 min
  Remaining Percentage (%) 30 min: 0.00%
[5]; 60 min
  Remaining Percentage (%) 60 min: 0.00%
[5]; 120 min
  Remaining Percentage (%) 120 min: 0.00%
[5]; 180 min
  Remaining Percentage (%) 180 min: 0.00%
[5]; 240 min
  Remaining Percentage (%) 240 min: 0.00%

## COc1cc2nc(N3CCN(C(=O)c4ccco4)CC3)nc(N)c2cc1OC [Prazosin]
[4]
  Papp A→B at 2 h, 5 µM: 10.1 ×10⁻⁶ cm/s
  Papp B→A at 2 h, 5 µM: 33.1 ×10⁻⁶ cm/s
  efflux ratio at 2 h, 5 μM: 3.28
[4]; [9]
  recovery at 2 h, 5 μM: 79.5%
[4]; [10]
  recovery at 2 h, 5 μM: 105%

## CC(C)[N+](C)(CCOC(=O)C1c2ccccc2Oc2ccccc21)C(C)C [Propantheline, reference compound]
[6]; 0 min
  Remaining Percentage (%) 0 min: 100.00%
[6]; [11]
  half-life at 5 μM: 9.53 min
[6]; 30 min
  Remaining Percentage (%) 30 min: 18.68%
[6]; 60 min
  Remaining Percentage (%) 60 min: 1.28%
[7]; 0 min
  Remaining Percentage (%) 0 min: 100.00%
[7]; [11]
  half-life at 5 μM: 34.4 min
[7]; 30 min
  Remaining Percentage (%) 30 min: 65.32%
[7]; 60 min
  Remaining Percentage (%) 60 min: 32.49%
[7]; 120 min
  Remaining Percentage (%) 120 min: 9.12%
[7]; 180 min
  Remaining Percentage (%) 180 min: 2.90%
[7]; 240 min
  Remaining Percentage (%) 240 min: 0.87%

## CC(C)NCC(O)COc1cccc2ccccc12 (stereo not shown) [Propranolol]
[4]
  Papp A→B at 2 h, 5 µM: 33.5 ×10⁻⁶ cm/s
  Papp B→A at 2 h, 5 µM: 23.1 ×10⁻⁶ cm/s
  efflux ratio at 2 h, 5 μM: 0.69
[4]; [9]
  recovery at 2 h, 5 μM: 91.3%
[4]; [10]
  recovery at 2 h, 5 μM: 92.6%

## CN(C)CCc1c[nH]c2cccc(OP(=O)(O)O)c12 [Psilocybin, 4-phosphoryloxy-N,N-dimethyltrypatmine]
[8]
  pIC50: 5.37
[4]
  Papp A→B at 2 h, 5 µM: 0.06 ×10⁻⁶ cm/s
  Papp B→A at 2 h, 5 µM: 0.03 ×10⁻⁶ cm/s
  efflux ratio at 2 h, 5 μM: 0.45
[4]; [9]
  recovery at 2 h, 5 μM: 41.4%
[4]; [10]
  recovery at 2 h, 5 μM: 104%
